{"source": "patent US7943606B2", "about": "“Compositions and methods to control abnormal cell growth” (CanCure Laboratories, LLC, priority 2005, dated 2011)", "test_system": "U-87 cells", "assay": "Viability of U-87 malignant glioma cells (MTT assay)", "format": "cell-based, human", "details": "100-200 μM, 72 hours", "procedure": "To quantify cell death, around the time when significant and characteristic morphological changes took place, cells were pulse-labeled for 10 minutes with [^3H]thymidine to measure DNA activity as described elsewhere [Tomono, M. and Kiss, Z. (1995), “Ethanol enhances the stimulatory effects of insulin and insulin-like growth factor-I on DNA synthesis in NIH 3T3 fibroblasts,” Biochem. Biophys. Res. Commun. 208, 63-67]. Also, cells were collected as suspensions using trypsin, an established method in cell biology, followed by re-plating of cells in fresh tissue culture medium. If no viable cells were obtained after one week in culture, it meant that the cells at the time of re-plating were dead. Survival values obtained with untreated cells were considered 100%. For the determination of relative number of viable cells after treatments, in most cases the MTT assay was used. This calorimetric assay is based on the ability of living cells, but not dead cells, to reduce 3-(4,5-dimethyl thiazol-2-yl)-2,5-diphenyltetrazolium bromide [Carmichael, J, De Graff, W. G., Gazdar, A. F., Minna, J. D. and Mitchell, J. B. (1987), “Evaluation of tetrazolium-based semi-automated calorimetric assay: Assessment of chemosensitivity testing,” Cancer Res. 47, 936-942]. For this assay, cells were plated in 96-well plates, and the MTT assay was performed both in untreated and treated cell cultures. […]", "data": [{"smiles": "CC[N+](C)(CC)CCOCc1ccc2sc3ccccc3c(=O)c2c1.[I-]", "note": "[CCDTHT, N,N-diethyl-N-methyl-2-[(9-oxo-9H-thioxanthen-2-yl)methoxy]-ethanaminium iodide]", "values": [{"measurement": "number of viable U-87 cells", "result": "sharply decrease"}]}]}
